Measurements taken from patent US20230015532A1, “PHARMACEUTICAL COMPOSITION, FOR PREVENTING OR TREATING FIBROSIS, COMPRISING PHEOPHORBIDE COMPOUND AS ACTIVE INGREDIENT” (PAEAN BIOTECHNOLOGY INC., priority 2019, published 2023).

What was measured:
Format in all cases: cell-based, human
[1] = tested on: collagen 1A in CCD8-Lu cells; test: Comparison of anti-fibrotic activity by immunocytochemistry staining (Experimental Example 4.3); conditions: 1 μM; 6 hours after 5 ng/ml TGF-β; fluorescence intensity
Experimental: A cell-based analysis experiment was performed to analyze the anti-fibrotic activity of pheophorbide a in comparison with nintedanib and pirfenidone, which were previously approved as a therapeutic agent for pulmonary fibrosis, using immunocytochemistry staining method. CCD8-Lu cells, which are human lung-derived fibroblasts, were cultured in the DMEM medium containing 10% FBS. About 2×10^4 cells were then inoculated into a 24 well plate and cultured for 24 hours, and subjected to the deficient condition in the DMEM medium from which FBS was removed for about 24 hours. After 24 hours, following the treatment with TGF-β at a concentration of 5 ng/ml, fibrosis of cells was induced for 6 hours. After 6 hours, the cells were treated with 2.5 μM or 5 μM of pheophorbide a, 1 μM of nintedanib, or 1 mM of pirfenidone. Immunohistochemistry analysis for each sample was performed as follows. First, the sample was washed twice with a PBS buffer, and then 4% formaldehyde was added to fix for 1 hour, and anti-collagen 1A was used as a primary antibody and Alexa Fluor 488 was used as a secondary antibody. The nuclei were stained using DAPI (4,6-diamidino-2-phenylindole) and the difference in the intensity of fluorescence was analyzed using a fluorescence microscope.

[2] = tested on: α-SMA, CTGF and NOX4 genes in CCD8-Lu cells; test: Comparison of anti-fibrotic activity by quantitative real-time PCR (Experimental Example 4.1); conditions: 6 hours after 5 ng/ml TGF-β, 18 hours, qRT-PCR
Experimental: A cell-based analysis experiment was performed to analyze the anti-fibrotic activity of pheophorbide a obtained in Preparation Example 2 in comparison with nintedanib and pirfenidone, which were previously approved as a therapeutic agent for pulmonary fibrosis, using quantitative real-time polymerase chain reaction.
(§1) CCD8-Lu cells, which are human lung-derived fibroblasts, were cultured in the DMEM medium containing 10% FBS. About 2×10^5 cells were then inoculated into a 6 well plate, cultured for 24 hours, and subjected to the deficient condition in the DMEM medium from which FBS was removed for about 24 hours.
24 hours later, following the treatment with TGF-β at a concentration of 5 ng/ml, fibrosis of cells was induced for 6 hours. After 6 hours, the cells were treated with pheophorbide a obtained in Preparation Example 2 or the therapeutic agent for pulmonary fibrosis and further cultured for 18 hours. […]
The supernatant was separated, added with the same volume of isopropyl alcohol and centrifuged at 12,000×g for 10 minutes. […] After drying, about 50 μl of RNAase-free purified distilled water was added thereto, and the quantity and purity of the obtained RNA was measured using a spectrophotometer. […]
After the cDNA synthesis reaction was completed, the reverse transcriptase was inactivated by heating at 72° C. for 5 minutes, and then RNase H was added to remove the […] RNA and obtain the final cDNA. Whether the expression of the alpha-smooth muscle actin gene, which is a characteristic gene of myofibroblasts, the CCN2 (or CTGF) gene, which is a characteristic gene for fibrosis, fibronectin, which is a characteristics gene for fibrosis, and the NOX4 (NADPH oxidase 4) gene known as a major regulator of the amount of reactive oxygen species was changed was observed through quantitative real-time polymerase chain reaction. The GAPDH gene was quantified together to correct differences in expression.

[3] = tested on: phosphorylated Smad3 and phosphorylated ERK in CCD8-Lu cells; test: Western blotting of phosphorylated proteins of TGF-β signaling (Experimental Example 5); conditions: 1 μM, 6 hours after 5 ng/ml TGF-β
Experimental: A cell-based assay experiment was performed using Western blotting assay to determine the effect of pheophorbide a on phosphorylation in the TGF-β signaling pathway. CCD8-Lu cells, which are human lung-derived fibroblasts, were cultured in the DMEM medium containing 10% FBS. About 2×10^5 cells were then inoculated into a 6 well plate, cultured for 24 hours, and subjected to the deficient condition in the DMEM medium from which FBS was removed for about 24 hours. 24 hours later, following the treatment with TGF-β at a concentration of 5 ng/ml, fibrosis of cells was induced for 6 hours. Then, the cells were treated with pheophorbide a obtained in Preparation Example 2 or the therapeutic agent for pulmonary fibrosis and further cultured for 18 hours. Then, the negative control group was treated with nothing, the positive control group was treated with TGF-β alone at a concentration of 5 ng/ml, and the experimental groups were treated with TGF-β at a concentration of 5 ng/ml and 6 hours later, with pheophorbide a at a concentration of 5 μM and nintedanib at a concentration of 1 μM, respectively. […] The separated supernatant was obtained and transferred to a new microtube and then the protein was quantified using a bicinchoninic acid assay (BCA assay) protein quantitative kit. […]

[4] = tested on: α-SMA, collagen 1A and fibronectin in CCD8-Lu cells; test: Comparison of anti-fibrotic activity by Western blotting (Experimental Example 4.2); conditions: 6 hours after 5 ng/ml TGF-β, 18 hours
Experimental: A cell-based analysis experiment was performed to analyze the anti-fibrotic activity of pheophorbide a in comparison with nintedanib and pirfenidone, which were previously approved as a therapeutic agent for pulmonary fibrosis, using Western blotting assay.
as §1
24 hours later, following the treatment with TGF-β at a concentration of 5 ng/ml, fibrosis of cells was induced for 6 hours. Then, the cells were treated with pheophorbide a obtained in Preparation Example 2 or the therapeutic agent for pulmonary fibrosis and further cultured for 18 hours. Then, the negative control group was treated with nothing, the positive control group was treated with TGF-β alone at a concentration of 5 ng/ml, and the experimental groups were treated with TGF-β at a concentration of 5 ng/ml and 6 hours later, with pheophorbide a at a concentration of […] or 5 μM, nintedanib at a concentration of 1 μM, and pirfenidone at a concentration of 1 mM, respectively.
After 18 hours, the culture medium was removed and the cells were washed twice by adding a PBS buffer solution, and 100 μl of RIPA buffer solution (150 mM NaCl, 1% NP-40, 0.5% Deoxycholic acid, 0.1% SDS, 50 mM Tris pH 7.5) containing a protease inhibitor was added thereto directly. 10 minutes later, the cells were recovered using a scraper and transferred to a microtube and centrifuged at about 12,000×g for 10 minutes.
The separated supernatant was obtained and transferred to a new microtube and then the protein was quantified using a bicinchoninic acid assay (BCA assay) protein quantitative kit. Each sample with the same amount of protein was subjected to electrophoresis, and then Western blotting was performed. […]

Structure (SMILES)	expression of the collagen 1A protein induced by TGF-β [1]	expression of α-SMA, CTGF and NOX4 genes induced by TGF-β ([2]; 1 μM)	expression of phosphorylated Smad3 and phosphorylated ERK induced by TGF-β [3]	expression of α-SMA, collagen 1A, and fibronectin induced by TGF-β ([4]; 1 μM)	expression of α-SMA, CTGF and NOX4 genes induced by TGF-β ([2]; 1 mM)	expression of α-SMA, collagen 1A, and fibronectin induced by TGF-β ([4]; 1 mM)
COC(=O)c1ccc2c(c1)NC(=O)/C2=C(\Nc1ccc(N(C)C(=O)CN2CCN(C)CC2)cc1)c1ccccc1 [nintedanib, reference compound]	weakly inhibited	weakly or hardly inhibited	hardly inhibited	weakly or hardly inhibited		
Cc1ccc(=O)n(-c2ccccc2)c1 [pirfenidone]					weakly or hardly inhibited	weakly or hardly inhibited
